Measurements as given in publication PMC7083851, “Extended pharmacodynamic responses observed upon PROTAC-mediated degradation of RIPK2” (Communications Biology, 2020).
Where “and” joins values, the source holds several entries; their conditions need not be identical. Equal values may be shown once.

Experiments:
[1] = ChromLogD7.4 high-throughput chromatographic lipophilicity; assay type: physicochemical
Rat intravenous PK = assay type: in vivo
Method: Rats (n = 3) received a single intravenous (IV) bolus administration (1 mg/kg, 4 mL/kg, n = 3 rats) formulated as a solution in saline with the pH adjusted to 4.0.
Aliquots of diluted whole blood (50:50) were analysed using quantitative high-performance liquid chromatography with tandem mass spectrometric detection (LC/MS/MS) following protein precipitation. […] PK parameters were generated following non-compartmental analysis (Phoenix® WinNonlin® (Certara, L.P., St. Louis, MO)) of the resulting concentration-time data.

RIPK2 = RIPK2 (Homo sapiens, UniProt O43353); test: RIPK2 fluorescence polarisation binding assay
Chain of RIPK2 (O43353 whole entry): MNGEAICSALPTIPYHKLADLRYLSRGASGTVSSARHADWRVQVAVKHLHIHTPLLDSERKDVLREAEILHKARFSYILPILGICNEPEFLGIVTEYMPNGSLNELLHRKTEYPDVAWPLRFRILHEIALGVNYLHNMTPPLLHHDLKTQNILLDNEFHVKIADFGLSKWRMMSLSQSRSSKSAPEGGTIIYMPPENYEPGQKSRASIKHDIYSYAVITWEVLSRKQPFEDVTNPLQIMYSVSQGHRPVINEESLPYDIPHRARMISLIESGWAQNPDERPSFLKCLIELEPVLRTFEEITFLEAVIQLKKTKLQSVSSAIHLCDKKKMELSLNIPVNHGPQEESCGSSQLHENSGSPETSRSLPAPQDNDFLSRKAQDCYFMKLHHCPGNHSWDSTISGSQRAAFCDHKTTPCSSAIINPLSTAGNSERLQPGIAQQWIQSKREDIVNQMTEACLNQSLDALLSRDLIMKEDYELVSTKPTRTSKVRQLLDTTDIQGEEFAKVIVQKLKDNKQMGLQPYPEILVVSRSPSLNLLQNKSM

Hepatocyte CLint, rat = assay type: in vitro ADME; conditions: rat liver hepatocytes
Method: Metabolic stability was performed at Cyprotex (UK). Pooled liver microsomes / cryopreserved pooled hepatocytes were purchased from a commercial supplier (BD Biosciences or Corning/InVitro Technologies).
The final incubation volume was 500 µL. An appropriate vehicle control was used. Each compound was incubated for 0, 5, 10, 20, 40, and 60 min. The control (vehicle) was incubated for 60 min.
All incubations were terminated by transferring 50 μL of incubate to 100 μL of acetonitrile containing internal standard at the appropriate time points. The termination plates were centrifuged at 2500 rpm for 20–30min at 4 °C to precipitate the protein. Following protein precipitation, samples were analysed using quantitative LC-MS/MS.

MDP-induced TNFα release = MDP-induced TNFα release in human whole blood; assay type: cell-based; conditions: inhibition of MDP-induced TNFα release
Method: (§1) Before treatment with compound or vehicle, THP1 cells, human and rat PBMCs were counted using Vi-Cell cell counter (Invitrogen) and adjusted to a final cell density of […] using complete growth medium. Cells or whole blood were treated with vehicle (0.1% DMSO) or fixed concentrations of compound up to 1 μM in half log unit increments and incubated for the time period indicated in the figure.
(§2) Where the assessment of cytokines was performed, L18-MDP was added to the cell culture media (1 μg/ml) or to the rat blood samples (100 ng/ml) and samples were incubated for up to 4 h. […]
(§3) Cytokine measurement assay: Cytokine levels were measured in rat plasma or rat PBMCs cell culture supernatants using rat V-Plex TNFα, in human plasma or human PBMCs cell culture supernatants with either TNFα tissue culture or 7-plex kit. Rat serum and tissues samples from the in vivo L18-MDP acute inflammation model were analyzed using the rat TNFα, Il-6 and IL-8 U-Plex kits. […] Levels of cytokines spontaneously released from human colon biopsies cell culture supernatants were measured using Human IL-1 beta/IL-1F2 DuoSet ELISA (Bio-techne), Human IL-6 ELISA (Immunotools) and Human TNF-alpha DuoSet ELISA (Bio-techne). […] The MSD plates were analyzed using the MSD sector imager 6000 plate reader and cytokines concentration (pg/ml) was obtained by using the MSD DISCOVERY WORKBENCH software version 4.0.12.1 […]

[2] = test system: L18-MDP-stimulated TNFα release; test: L18-MDP-stimulated TNFα release in rat whole blood; assay type: cell-based; conditions: inhibition of L18-MDP-stimulated TNFα release
Method: as §1, §2, §3

cIAP1 = biological target: T1, cIAP1 (Homo sapiens, UniProt Q13490); assay type: cell-based; conditions: human PBMCs, 24 h, 1uM
T1 construct: endogenous in cells; host or cells: primary human PBMCs
T1 sequence (Q13490 whole entry): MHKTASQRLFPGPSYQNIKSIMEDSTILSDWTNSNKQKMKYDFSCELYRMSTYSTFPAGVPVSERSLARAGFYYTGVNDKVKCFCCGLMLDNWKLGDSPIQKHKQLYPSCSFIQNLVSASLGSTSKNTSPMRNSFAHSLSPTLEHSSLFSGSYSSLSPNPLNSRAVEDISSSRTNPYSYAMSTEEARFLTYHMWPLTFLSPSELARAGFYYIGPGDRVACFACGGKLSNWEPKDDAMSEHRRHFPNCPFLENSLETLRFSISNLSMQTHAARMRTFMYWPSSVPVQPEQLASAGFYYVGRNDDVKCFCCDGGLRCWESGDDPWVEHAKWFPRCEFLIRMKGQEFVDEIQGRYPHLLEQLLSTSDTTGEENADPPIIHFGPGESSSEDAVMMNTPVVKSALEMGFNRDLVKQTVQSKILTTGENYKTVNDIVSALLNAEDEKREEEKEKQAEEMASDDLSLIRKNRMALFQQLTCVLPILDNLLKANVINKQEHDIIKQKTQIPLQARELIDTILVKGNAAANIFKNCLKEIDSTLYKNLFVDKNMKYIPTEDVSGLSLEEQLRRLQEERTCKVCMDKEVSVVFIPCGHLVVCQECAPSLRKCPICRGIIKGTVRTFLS
Method: Where the assessment of cytokines was performed, L18-MDP was added to the cell culture media (1 μg/ml) or to the rat blood samples (100 ng/ml) and samples were incubated for up to 4 h. […] Samples were them spun down at 1000 g and the cell culture supernatant, plasma or serum were collected for cytokines assessment, while cell pellets were used for RIPK2 and/or cIAP1, cIAP2, and XIAP levels analysis via immunoblotting.
Simple Western immunoassay: Cell lysates were mixed with 5× concentrated master mix (Protein Simple) and denatured at 95 °C on a heat block for 5 min together with the provided ladder (Protein Simple). Antibodies were diluted in the provided buffer as following: anti-RIPK2 (1:10 or 1:50), anti-cIAP1(1:10), anti-cIAP2 (1:10), anti-XIAP (1:10), mouse anti-β-actin (Abcam - 1:1000), rabbit anti-β-actin (Abcam - 1:50) and anti-vinculin (1:100). All reagents (blocking buffer, primary and secondary antibodies, streptavadin, luminol/peroxide, separation matrix, stacking matrix and water) were added to the Protein Simple plate containing the ladder and lysates and the plate was placed in a Protein Simple Western instrument and the Simple Western default size assay protocol was used. […] The area under the peak values obtained for RIPK2, cIAP1, cIAP2 or XIAP were normalized relative to the control protein values.

[3] = test system: spontaneous IL-1β, IL-6, and TNFα release; test: Spontaneous cytokine release (IL-1β, IL-6, TNFα) from Crohn's disease patient intestinal biopsies; assay type: cell-based, human; conditions: for IL-1b (Ctrl=DMSO = 100) / IL-6 (Ctrl=DMSO = 100) / TNFa (Ctrl=DMSO = 100): individual biopsies, fig 4e
Method: Colonic biopsies or tissues were obtained during endoscopy or via surgical resection from Crohn’s Disease (CD) or Ulcerative Colitis (UC) patients (St Bartholomew’s Hospital, London). All patients gave informed written consent. For surgical specimens, the mucosa was dissected away from the submucosa and cut into pieces of ~10–20 mg. […] The supernatants were collected for cytokine measurement as detailed in cytokines assay section while tissues were used to determine RIPK2 levels.
Cytokine measurement assay: Cytokine levels were measured in rat plasma or rat PBMCs cell culture supernatants using rat V-Plex TNFα, in human plasma or human PBMCs cell culture supernatants with either TNFα tissue culture or 7-plex kit. Rat serum and tissues samples from the in vivo L18-MDP acute inflammation model were analyzed using the rat TNFα, Il-6 and IL-8 U-Plex kits. All kits provided by Meso Scale Discovery (MSD). Levels of cytokines spontaneously released from human colon biopsies cell culture supernatants were measured using Human IL-1 beta/IL-1F2 DuoSet ELISA (Bio-techne), Human IL-6 ELISA (Immunotools) and Human TNF-alpha DuoSet ELISA (Bio-techne). All samples were processed accordingly to the manufacturer’s instructions. The MSD plates were analyzed using the MSD sector imager 6000 plate reader and cytokines concentration (pg/ml) was obtained by using the MSD DISCOVERY WORKBENCH software version 4.0.12.1

CN[C@@H](C)C(=O)N[C@H](C(=O)N1CCC[C@H]1c1nc(C(=O)c2ccc(F)cc2)cs1)C1CCN(C(=O)c2cnc(N3CCN(CCOc4cc5ncnc(Nc6n[nH]c(C)c6C)c5cc4S(=O)(=O)C(C)(C)C)CC3)nc2)CC1 [PROTAC 4]
ChromLogD7.4 [1]: 4.2
mean intravenous clearance in rats, in words (Rat intravenous PK; in vivo, iv): less than a quarter of liver blood flow
clearance (Rat intravenous PK; male, Sprague Dawley (PROTAC 4), Han Wistar (PROTAC 6), whole blood, IV bolus (4: 2 mg/kg; 6: 1 mg/kg)): 18 mL/min/kg
half-life (Rat intravenous PK; male, Sprague Dawley (PROTAC 4), Han Wistar (PROTAC 6), whole blood, IV bolus (4: 2 mg/kg; 6: 1 mg/kg), read-out: Rat T½ (converted)): 6.9 h
Vd (Rat intravenous PK; male, Sprague Dawley (PROTAC 4), Han Wistar (PROTAC 6), whole blood, IV bolus (4: 2 mg/kg; 6: 1 mg/kg), read-out: Rat Vdss): 11 L/kg
RIPK2 FP pIC50 ± SEM (n) (RIPK2): 6.6 ± 0.02 (8)
clearance in hepatocytes (Hepatocyte CLint, rat): < 0.80 mL/min/g liver
hWB MDP pIC50 ± SEM (n) (MDP-induced TNFα release): 7.7 ± 0.05 (4)
rWB MDP pIC50 ± SEM (n) [2]: 7.7 ± 0.16 (4)

CN[C@@H](C)C(=O)N[C@H](C(=O)N1C[C@@H](NC(=O)c2cnc(N3CCN(CCCOc4cc5ncnc(Nc6n[nH]c(C)c6C)c5cc4S(=O)(=O)C(C)(C)C)CC3)cn2)C[C@H]1C(=O)Nc1c(F)cccc1F)C(C)(C)C [PROTAC 6]
reduction in cIAP1 levels (cIAP1): ~ 25%
IC50 ([3]; Homo sapiens, 24 h, read-out: IC50 inhibition of spontaneous cytokine release): 1 to 3 nM
IL-1b (Ctrl=DMSO = 100) ([3]; compound concentration 0.05 nM): 94 and 86 and 97
IL-6 (Ctrl=DMSO = 100) ([3]; compound concentration 0.05 nM): 105 and 101 and 86
TNFa (Ctrl=DMSO = 100) ([3]; compound concentration 0.05 nM): 90 and 96
IL-1b (Ctrl=DMSO = 100) ([3]; compound concentration 0.5 nM): 59 and 61 and 39 and 57
IL-6 (Ctrl=DMSO = 100) ([3]; compound concentration 0.5 nM): 98 and 80 and 79 and 97 and 84 and 33
TNFa (Ctrl=DMSO = 100) ([3]; compound concentration 0.5 nM): 87 (2×) and 88 and 52
IL-1b (Ctrl=DMSO = 100) ([3]; compound concentration 5 nM): 50 and 72 and 71 and 12 and 58 and 31 and 5 and 56 and 44 and 41 (2×) and 49 and 74 and 81
IL-6 (Ctrl=DMSO = 100) ([3]; compound concentration 5 nM): 56 and 35 and 85 (2×) and 14 (2×) and 49 and 48 and 89 and 101 and 72 and 66 and 70 and 53
TNFa (Ctrl=DMSO = 100) ([3]; compound concentration 5 nM): 38 and 23 and 69 (2×) and 35 (2×) and 42 and 24 and 87 and 58 and 34 and 11 and 66 and 31 and 41
IL-1b (Ctrl=DMSO = 100) ([3]; compound concentration 50 nM): 12 (2×) and 26 and 66 and 31 and 32 and 4 and 29 and 9 and 18 and 69 and 5 and 52 and 14
IL-6 (Ctrl=DMSO = 100) ([3]; compound concentration 50 nM): 35 and 29 and 12 (2×) and 31 (2×) and 16 (2×) and 75 and 44 and 24 and 50 and 63 and 23 and 57
TNFa (Ctrl=DMSO = 100) ([3]; compound concentration 50 nM): 42 and 16 and 50 (2×) and 37 (2×) and 0 and 30 (2×) and 24 and 78 and 25 and 60 and 34 and 59
